Measurements as given in patent US20240247015A1, “PHOSPHORUS DERIVATIVES AS NOVEL SOS1 INHIBITORS” (BAYER AKTIENGESELLSCHAFT, priority 2021, published 2024).

Molecular target: interaction of human SOS1 (SOS1) with human K-RasG12C (Homo sapiens (Human), UniProt Q07889)
Assay: Biochemical assay: hK-RasG12C interaction assay with hSOS1 (HTRF)
Assay type: binding
Details: GST-hK-RasG12C with His-hSOS1, 60 min incubation at 20° C., mean, read-out: K-RasG12C - SOS interaction assay IC50 (mean)
In short: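 Compounds, duplicates at 11 concentrations from 0.073 nM to 20 µM, were preincubated 2 min with 10 nM GST-hK-RasG12C, then 20 nM His-hSOS1 was added, all at 20 °C. After 60 min, 665/620 nm HTRF ratio normalized to DMSO and SOS1-free controls; IC50 by 4-parameter fit.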

interaction of human SOS1 (SOS1) with human K-RasG12C, sequence (Q07889 564-1049 limits assumed): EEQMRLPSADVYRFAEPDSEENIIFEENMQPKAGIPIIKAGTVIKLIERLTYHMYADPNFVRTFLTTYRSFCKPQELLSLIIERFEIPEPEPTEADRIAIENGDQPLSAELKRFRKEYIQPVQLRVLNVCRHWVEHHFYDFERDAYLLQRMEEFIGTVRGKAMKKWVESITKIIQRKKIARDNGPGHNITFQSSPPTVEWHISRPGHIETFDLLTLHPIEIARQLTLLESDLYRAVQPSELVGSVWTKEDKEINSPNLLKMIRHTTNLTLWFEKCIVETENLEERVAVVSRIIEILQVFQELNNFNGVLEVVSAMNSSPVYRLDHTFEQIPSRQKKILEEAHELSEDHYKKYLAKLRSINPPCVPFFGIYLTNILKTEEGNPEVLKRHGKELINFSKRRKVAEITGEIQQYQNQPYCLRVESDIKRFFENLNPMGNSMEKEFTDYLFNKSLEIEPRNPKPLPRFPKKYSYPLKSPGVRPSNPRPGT

| SMILES | IC50 |
| --- | --- |
| Cc1nc(N[C@H](C)c2cccc(C(F)(F)F)c2C)c2cc(P3(=O)CCN(C(C)C)CC3)ncc2n1 [Example 53, 4-[2-methyl-4-({(1R)-1-[2-methyl-3-(trifluoromethyl)phenyl]ethyl}amino)pyrido[3,4-d]pyrimidin-6-yl]-1-(propan-2-yl)-1,4lambda^5-azaphosphinan-4-one] | 0.0654 µM |
| Cc1nc(N[C@H](C)c2cccc(C(F)(F)C(C)O)c2F)c2cc(P(C)(=O)C(C)C)ncc2n1 (single isomer, unassigned) [Example 79, (2R*)-1,1-difluoro-1-{2-fluoro-3-[(1R)-1-({2-methyl-6-[methyl(propan-2-yl)phosphoryl]pyrido[3,4-d]pyrimidin-4-yl}amino)ethyl]phenyl}propan-2-ol] | 0.0123 µM |
| CCP(C)(=O)c1cc2c(N[C@H](C)c3cccc(C(F)F)c3F)nc(C)nc2cn1 (single isomer, unassigned) [Example 119] | 0.0429 µM |
| Cc1nc(N[C@H](C)c2cccc(C(F)(F)C(C)(C)O)c2F)c2cc(P(C)(=O)C(C)C)ncc2n1 (stereo partly drawn) [Example 70, 1,1-difluoro-1-{2-fluoro-3-[(1R)-1-({2-methyl-6-[methyl(propan-2-yl)phosphoryl]pyrido[3,4-d]pyrimidin-4-yl}amino)ethyl]phenyl}-2-methylpropan-2-ol] | 0.0276 µM |
| Cc1nc(N[C@H](C)c2cccc(C(F)(F)F)c2C)c2cc(P3(=O)CCN(C(=O)C4(C(F)F)CC4)CC3)ncc2n1 [Example 169, 1-[1-(difluoromethyl)cyclopropane-1-carbonyl]-4-[2-methyl-4-({(1R)-1-[2-methyl-3-(trifluoromethyl)phenyl]ethyl}amino)pyrido[3,4-d]pyrimidin-6-yl]-1,4lambda^5-azaphosphinan-4-one] | 0.00955 µM |
| CC(=O)N1CCP(=O)(c2cc3c(N[C@H](C)c4cccc(C(F)(F)F)c4C)nc(C(F)F)nc3cn2)CC1 [Example 195] | 0.00656 µM |
| Cc1nc(N[C@H](C)c2cccc(C(F)(F)C(=O)N(C)C)c2F)c2cc(P(C)(C)=O)ncc2n1 [Example 50, 2-{3-[(1R)-1-{[6-(dimethylphosphoryl)-2-methylpyrido[3,4-d]pyrimidin-4-yl]amino}ethyl]-2-fluorophenyl}-2,2-difluoro-N,N-dimethylacetamide] | 0.156 µM |
| Cc1nc(N[C@H](C)c2cccc(C(F)(F)CO)c2F)c2cc(P(C)(=O)C(C)C)ncc2n1 (single isomer, unassigned) [Example 135] | 0.017 µM |
| Cc1nc(N[C@H](C)c2cccc(C(F)(F)F)c2C)c2cc(P3(=O)CCN(C(=O)OC(C)(C)C)CC3)nc(C)c2n1 [Example 91, tert-butyl 4-[2,8-dimethyl-4-({(1R)-1-[2-methyl-3-(trifluoromethyl)phenyl]ethyl}amino)pyrido[3,4-d]pyrimidin-6-yl]-4-oxo-1,4lambda^5-azaphosphinane-1-carboxylate] | 0.286 µM |
| COCC(F)(F)c1cccc([C@@H](C)Nc2nc(C)nc3cnc(P4(=O)CCN(C(C)=O)CC4)cc23)c1F [Example 139, 1-acetyl-4-[4-({(1R)-1-[3-(1,1-difluoro-2-methoxyethyl)-2-fluorophenyl]ethyl}amino)-2-methylpyrido[3,4-d]pyrimidin-6-yl]-1,4lambda^5-azaphosphinan-4-one] | 0.0054 µM |
| CCC(O)C(F)(F)c1cccc([C@@H](C)Nc2nc(C)nc3cnc(P(C)(C)=O)cc23)c1F (single isomer, unassigned) [Example 65, (2R*)-1-{3-[(1R)-1-{[6-(dimethylphosphoryl)-2-methylpyrido[3,4-d]pyrimidin-4-yl]amino}ethyl]-2-fluorophenyl}-1,1-difluorobutan-2-ol] | 0.0105 µM |
| Cc1nc(N[C@H](C)c2cccc(C(F)(F)F)c2Cl)c2cc(P(C)(C)=O)ncc2n1 [Example 120, N-{(1R)-1-[2-chloro-3-(trifluoromethyl)phenyl]ethyl}-6-(dimethylphosphoryl)-2-methylpyrido[3,4-d]pyrimidin-4-amine] | 0.0367 µM |
| CCP(C)(=O)c1cc2c(N[C@H](C)c3cccc(C(F)(F)C(C)O)c3F)nc(C)nc2cn1 (single isomer, unassigned) [Example 76, (2R*)-1-{3-[(1R)-1-({6-[ethyl(methyl)phosphoryl]-2-methylpyrido[3,4-d]pyrimidin-4-yl}amino)ethyl]-2-fluorophenyl}-1,1-difluoropropan-2-ol] | 0.0213 µM |
| CCP(C)(=O)c1cc2c(N[C@H](C)c3cccc(C(F)(F)C(C)O)c3F)nc(C)nc2cn1 (single isomer, unassigned) [Example 73, (2R*)-1-{3-[(1R)-1-{{6-[ethyl(methyl)phosphoryl]-2-methylpyrido[3,4-d]pyrimidin-4-yl}amino)ethyl]-2-fluorophenyl}-1,1-difluoropropan-2-ol] | 0.0113 µM |
| Cc1nc(N[C@H](C)c2cccc(C(F)(F)F)c2C)c2cc(P3(=O)CCCC3)c(C)nc2n1 [Example 100, 1-[2,7-dimethyl-4-{{(1R)-1-[2-methyl-3-(trifluoromethyl)phenyl]ethyl}amino)pyrido[2,3-d]pyrimidin-6-yl]-1lambda^5-phospholan-1-one] | 0.00489 µM |
| Cc1nc(N[C@H](C)c2cccc(C(F)(F)C(C)O)c2F)c2cc(P3(=O)CCCC3)ncc2n1 (single isomer, unassigned) [Example 111, 1-(4-{[(1R)-1-{3-[(2R*)-1,1-difluoro-2-hydroxypropyl]-2-fluorophenyl}ethyl]amino}-2-methylpyrido[3,4-d]pyrimidin-6-yl)-1lambda^5-phospholan-1-one] | 0.0215 µM |
| Cc1nc(N[C@H](C)c2cccc(C(F)(F)C(C)(C)O)c2F)c2cc(P(=O)(C(C)C)C(C)C)c(C)nc2n1 [Example 21, 1-{3-[(1R)-1-({6-[di(propan-2-yl)phosphoryl]-2,7-dimethylpyrido[2,3-d]pyrimidin-4-yl}amino)ethyl]-2-fluorophenyl}-1,1-difluoro-2-methylpropan-2-ol] | 0.121 µM |
| CCP(C)(=O)c1cc2c(N[C@H](C)c3cccc(C(F)F)c3F)nc(C)nc2cn1 (single isomer, unassigned) [Example 118] | 0.0565 µM |
| Cc1nc(N[C@H](C)c2cccc(C(F)(F)C(C)O)c2F)c2cc(P3(=O)CCCC3)ncc2n1 (single isomer, unassigned) [Example 112, 1-(4-{[(1R)-1-{3-[(2R*)-1,1-difluoro-2-hydroxypropyl]-2-fluorophenyl}ethyl]amino}-2-methylpyrido[3,4-d]pyrimidin-6-yl)-1lambda^5-phospholan-1-one] | 0.0112 µM |
| Cc1nc(N[C@H](C)c2cccc(C(F)(F)F)c2C)c2cc(P3(=O)CCN(C(=O)[C@H](C)O)CC3)ncc2n1 [Example 165, 1-[(2S)-2-hydroxypropanoyl]-4-[2-methyl-4-{{(1R)-1-[2-methyl-3-(trifluoromethyl)phenyl]ethyl}amino)pyrido[3,4-d]pyrimidin-6-yl]-1,4lambda^5-azaphosphinan-4-one] | 0.00437 µM |
| COC(C)(C)C(F)(F)c1cccc([C@@H](C)Nc2nc(C)nc3cnc(P4(=O)CCN(C(C)=O)CC4)cc23)c1F [Example 140, 1-acetyl-4-[4-({(1R)-1-[3-(1,1-difluoro-2-methoxy-2-methylpropyl)-2-fluorophenyl]ethyl}amino)-2-methylpyrido[3,4-d]pyrimidin-6-yl]-1,4lambda^5-azaphosphinan-4-one] | 0.0114 µM |
